Results as given in ChEMBL document CHEMBL5696443 (Clin Cancer Res, 2016).
Active and inactive are the calls of the source. The rule behind the calls is not given here.

What was measured:
[1] = biological target: Fibroblast growth factor receptor 3 (Homo sapiens, UniProt P22607); assay: Inhibition of human FGFR3 using poly (Glu, Tyr)4:1 as substrate in presence of [gamma33P]-ATP by HotSpot assay
[2] = biological target: Dual specificity protein kinase CLK1 (Homo sapiens, UniProt P49759); assay: Inhibition of human CLK1 using MBP as substrate in presence of [gamma33P]-ATP by HotSpot assay
Dual specificity protein kinase CLK1, sequence (P49759 whole entry): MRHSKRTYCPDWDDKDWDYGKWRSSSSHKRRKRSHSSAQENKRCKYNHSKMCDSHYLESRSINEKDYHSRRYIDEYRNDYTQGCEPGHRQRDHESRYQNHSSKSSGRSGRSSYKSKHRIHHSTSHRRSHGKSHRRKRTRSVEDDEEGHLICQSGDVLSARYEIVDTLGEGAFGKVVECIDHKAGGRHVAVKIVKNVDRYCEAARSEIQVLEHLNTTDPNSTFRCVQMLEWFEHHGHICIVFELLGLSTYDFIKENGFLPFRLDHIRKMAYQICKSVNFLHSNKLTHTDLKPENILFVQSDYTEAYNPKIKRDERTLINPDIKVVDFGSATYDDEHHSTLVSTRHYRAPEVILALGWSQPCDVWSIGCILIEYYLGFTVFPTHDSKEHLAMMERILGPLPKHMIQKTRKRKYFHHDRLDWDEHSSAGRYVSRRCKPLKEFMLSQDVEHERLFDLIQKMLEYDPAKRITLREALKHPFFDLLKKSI

[3] = biological target: Dual specificity mitogen-activated protein kinase kinase 2 (Homo sapiens) (UniProt P36507); assay: Inhibition of human MAP2K2 at 1 uM using ERK2 as substrate in presence of [gamma33P]-ATP by HotSpot assay relative to control
[4] = biological target: Serine/threonine-protein kinase NLK (Homo sapiens) (UniProt Q9UBE8); assay: Inhibition of human NLK at 1 uM using MBP as substrate in presence of [gamma33P]-ATP by HotSpot assay relative to control
[5] = biological target: Casein kinase II subunit alpha' (Homo sapiens) (UniProt P19784); assay: Inhibition of human CK2a2 at 1 uM using RRRDDDSDDD as substrate in presence of [gamma33P]-ATP by HotSpot assay relative to control
NCI-H2228 = conditions: time 72 hrs
[6] = biological target: Cyclin-dependent kinase 5/CDK5 activator 1 (Homo sapiens) (UniProt Q00535+Q15078); assay: Inhibition of human CDK5/p35 at 1 uM using RB protein as substrate in presence of [gamma33P]-ATP by HotSpot assay relative to control; type: protein-complex assay
Cyclin-dependent kinase 5/CDK5 activator 1 (Homo sapiens), sequence (Q00535 whole entry): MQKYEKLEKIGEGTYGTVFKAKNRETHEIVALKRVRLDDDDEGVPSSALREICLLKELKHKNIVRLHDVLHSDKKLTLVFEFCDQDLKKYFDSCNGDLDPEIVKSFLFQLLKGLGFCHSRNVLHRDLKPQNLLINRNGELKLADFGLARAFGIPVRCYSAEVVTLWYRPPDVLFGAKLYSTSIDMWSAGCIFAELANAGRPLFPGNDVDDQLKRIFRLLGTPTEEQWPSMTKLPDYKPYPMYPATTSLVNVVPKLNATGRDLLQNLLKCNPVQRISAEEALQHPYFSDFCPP
Cyclin-dependent kinase 5/CDK5 activator 1 (Homo sapiens), sequence (Q15078 99-307 partner limits assumed): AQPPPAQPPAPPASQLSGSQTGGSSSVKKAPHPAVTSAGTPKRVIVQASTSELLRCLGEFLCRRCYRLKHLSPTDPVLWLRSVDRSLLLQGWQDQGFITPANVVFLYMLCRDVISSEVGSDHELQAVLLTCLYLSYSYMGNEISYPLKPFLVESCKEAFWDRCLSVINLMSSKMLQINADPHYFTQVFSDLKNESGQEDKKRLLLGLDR

[7] = biological target: Serine/threonine-protein kinase PAK 4 (Homo sapiens) (UniProt O96013); assay: Inhibition of human PAK4 at 1 uM using RRRLSFAEPG as substrate in presence of [gamma33P]-ATP by HotSpot assay relative to control
[8] = biological target: Serine/threonine-protein kinase Nek11 (Homo sapiens) (UniProt Q8NG66); assay: Inhibition of human NEK11 at 1 uM using MBP as substrate in presence of [gamma33P]-ATP by HotSpot assay relative to control
[9] = biological target: Mitogen-activated protein kinase 12 (Homo sapiens) (UniProt P53778); assay: Inhibition of human P38gamma at 1 uM using MBP as substrate in presence of [gamma33P]-ATP by HotSpot assay relative to control
Mus musculus [10] = assay: In vivo inhibition of ALK signaling in SCID Beige mouse xenografted with ALK positive human KARPAS-299 cells assessed as reduction in phosphorylated ALK level at 10 to 50 mg/kg, po administered as single dose and measured at 6 to 24 hrs by immunoblot analysis; type: functional, organism-based; conditions: dose 10-50 mg/kg, time 6-24 hrs
[11] = biological target: Calcium/calmodulin-dependent protein kinase type II subunit alpha (Homo sapiens) (UniProt Q9UQM7); assay: Inhibition of human CAMK2A at 1 uM using KKALRRQETVDAL as substrate in presence of [gamma33P]-ATP by HotSpot assay relative to control
Calcium/calmodulin-dependent protein kinase type II subunit alpha (Homo sapiens), sequence (Q9UQM7 whole entry): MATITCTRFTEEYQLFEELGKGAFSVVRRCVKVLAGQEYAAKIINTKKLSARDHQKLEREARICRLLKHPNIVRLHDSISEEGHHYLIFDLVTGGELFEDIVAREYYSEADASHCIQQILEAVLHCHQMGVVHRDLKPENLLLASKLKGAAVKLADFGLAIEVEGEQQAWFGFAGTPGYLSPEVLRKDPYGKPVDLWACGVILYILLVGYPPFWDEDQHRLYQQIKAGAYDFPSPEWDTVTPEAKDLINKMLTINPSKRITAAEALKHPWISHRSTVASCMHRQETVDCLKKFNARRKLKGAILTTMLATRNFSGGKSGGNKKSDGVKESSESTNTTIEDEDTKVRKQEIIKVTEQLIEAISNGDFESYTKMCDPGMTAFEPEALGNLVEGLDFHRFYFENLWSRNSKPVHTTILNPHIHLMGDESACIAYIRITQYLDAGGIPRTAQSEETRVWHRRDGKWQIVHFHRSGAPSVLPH

KARPAS-299 = assay: Antitumor activity against ALK positive human KARPAS-299 cells xenografted in SCID beige mouse assessed as tumor growth inhibition at 25 mg/kg, po administered once daily for 14 days relative to control; type: functional; conditions: time 14 day
[12] = test system: EML4-ALK (Homo sapiens), Q9UM73+Q9HC35 [G1269A]; conditions: BaF3, dose 500.0 nmol/L, time 3-5 weeks
[13] = biological target: Serine/threonine-protein kinase PLK2 (Homo sapiens) (UniProt Q9NYY3); assay: Inhibition of human PLK2 at 1 uM using casein as substrate in presence of [gamma33P]-ATP by HotSpot assay relative to control
Serine/threonine-protein kinase PLK2 (Homo sapiens), sequence (Q9NYY3 whole entry, looked up): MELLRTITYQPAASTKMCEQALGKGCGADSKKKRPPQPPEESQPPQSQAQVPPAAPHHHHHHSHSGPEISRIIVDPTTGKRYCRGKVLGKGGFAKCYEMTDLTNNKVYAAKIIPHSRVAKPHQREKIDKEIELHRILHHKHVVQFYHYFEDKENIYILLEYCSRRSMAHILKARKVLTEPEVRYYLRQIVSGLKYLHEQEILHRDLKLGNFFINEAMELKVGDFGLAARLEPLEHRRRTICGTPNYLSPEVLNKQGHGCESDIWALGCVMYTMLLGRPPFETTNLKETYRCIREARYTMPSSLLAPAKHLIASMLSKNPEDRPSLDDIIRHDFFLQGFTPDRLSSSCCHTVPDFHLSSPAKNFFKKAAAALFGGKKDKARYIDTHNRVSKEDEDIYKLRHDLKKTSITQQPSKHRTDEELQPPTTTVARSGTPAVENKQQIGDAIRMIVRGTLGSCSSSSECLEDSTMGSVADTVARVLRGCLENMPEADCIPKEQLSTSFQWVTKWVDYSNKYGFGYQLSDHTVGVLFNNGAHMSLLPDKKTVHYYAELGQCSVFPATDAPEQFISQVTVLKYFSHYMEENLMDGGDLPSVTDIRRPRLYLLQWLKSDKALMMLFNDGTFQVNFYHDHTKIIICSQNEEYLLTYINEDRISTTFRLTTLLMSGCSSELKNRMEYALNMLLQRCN

Mus musculus [14] = assay: In vivo inhibition of ALK signaling in SCID Beige mouse xenografted with ALK positive human KARPAS-299 cells assessed as reduction in phosphorylated ERK1/2 level at 10 to 50 mg/kg, po administered as single dose and measured at 6 to 24 hrs by immunoblot analysis; type: functional, organism-based; conditions: dose 10-50 mg/kg, time 6-24 hrs
cells = conditions: Homo sapiens, BaF3, 72 h
[15] = biological target: Casein kinase I isoform gamma-1 (Homo sapiens) (UniProt Q9HCP0); assay: Inhibition of human CSNK1G1 at 1 uM using KRRRAL[pS]VASLPGL as substrate in presence of [gamma33P]-ATP by HotSpot assay relative to control
Casein kinase I isoform gamma-1 (Homo sapiens), sequence (Q9HCP0 whole entry, looked up, canonical isoform): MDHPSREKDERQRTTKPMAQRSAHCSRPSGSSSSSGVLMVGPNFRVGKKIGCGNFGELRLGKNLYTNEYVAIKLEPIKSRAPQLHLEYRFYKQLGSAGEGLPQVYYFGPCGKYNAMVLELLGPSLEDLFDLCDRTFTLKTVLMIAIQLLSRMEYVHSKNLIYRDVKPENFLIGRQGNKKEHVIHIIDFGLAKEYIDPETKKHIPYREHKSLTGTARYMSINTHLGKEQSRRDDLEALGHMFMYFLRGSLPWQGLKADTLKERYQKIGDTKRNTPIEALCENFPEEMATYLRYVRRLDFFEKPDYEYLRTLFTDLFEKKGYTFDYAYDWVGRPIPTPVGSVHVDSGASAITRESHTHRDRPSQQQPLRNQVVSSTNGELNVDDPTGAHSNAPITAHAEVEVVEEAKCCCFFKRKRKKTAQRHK

[16] = biological target: Ribosomal protein S6 kinase beta-2 (Homo sapiens) (UniProt Q9UBS0); assay: Inhibition of human RPS6KB2 at 1 uM using KKRNRTLTK as substrate in presence of [gamma33P]-ATP by HotSpot assay relative to control
[17] = biological target: Tyrosine-protein kinase ABL1 (Homo sapiens, UniProt P00519, Q252H); assay: Inhibition of human ABL1 Q252H mutant using EAIYAAPFAKKK as substrate in presence of [gamma33P]-ATP by HotSpot assay
[18] = biological target: MAP/microtubule affinity-regulating kinase 3 (Homo sapiens, UniProt P27448); assay: Inhibition of human MARK3 using KKKVSRSGLYRSPSMPENLNRPR as substrate in presence of [gamma33P]-ATP by HotSpot assay
MAP/microtubule affinity-regulating kinase 3, sequence (P27448 whole entry): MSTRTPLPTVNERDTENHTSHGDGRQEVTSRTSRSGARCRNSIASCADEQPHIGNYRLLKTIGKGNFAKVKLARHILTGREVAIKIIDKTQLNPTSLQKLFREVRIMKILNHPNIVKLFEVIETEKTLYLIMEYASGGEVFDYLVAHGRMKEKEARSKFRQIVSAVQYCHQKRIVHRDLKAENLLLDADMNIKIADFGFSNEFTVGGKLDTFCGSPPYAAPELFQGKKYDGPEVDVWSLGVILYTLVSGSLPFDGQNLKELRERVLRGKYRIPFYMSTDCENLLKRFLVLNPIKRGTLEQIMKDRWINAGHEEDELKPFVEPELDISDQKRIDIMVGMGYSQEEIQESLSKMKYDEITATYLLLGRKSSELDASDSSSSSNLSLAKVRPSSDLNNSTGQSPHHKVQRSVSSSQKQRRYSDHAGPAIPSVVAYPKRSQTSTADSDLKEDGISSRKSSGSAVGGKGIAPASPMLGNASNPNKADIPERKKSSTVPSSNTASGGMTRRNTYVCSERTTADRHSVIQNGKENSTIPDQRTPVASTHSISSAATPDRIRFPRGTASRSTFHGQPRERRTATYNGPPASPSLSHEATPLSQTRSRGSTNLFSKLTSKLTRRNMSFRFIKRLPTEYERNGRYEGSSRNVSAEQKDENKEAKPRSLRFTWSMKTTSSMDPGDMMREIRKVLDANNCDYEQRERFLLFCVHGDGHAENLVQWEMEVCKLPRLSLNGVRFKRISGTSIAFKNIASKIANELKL

Angiopoietin-1 receptor = Angiopoietin-1 receptor (Homo sapiens, UniProt Q02763); assay: Inhibition of human TEK using poly (Glu, Tyr)4:1 as substrate in presence of [gamma33P]-ATP by HotSpot assay
Ephrin type-B receptor 1 = Ephrin type-B receptor 1 (Homo sapiens, UniProt P54762); assay: Inhibition of human EPHB1 using poly (Glu, Tyr)4:1 as substrate in presence of [gamma33P]-ATP by HotSpot assay
Ephrin type-B receptor 1, sequence (P54762 whole entry): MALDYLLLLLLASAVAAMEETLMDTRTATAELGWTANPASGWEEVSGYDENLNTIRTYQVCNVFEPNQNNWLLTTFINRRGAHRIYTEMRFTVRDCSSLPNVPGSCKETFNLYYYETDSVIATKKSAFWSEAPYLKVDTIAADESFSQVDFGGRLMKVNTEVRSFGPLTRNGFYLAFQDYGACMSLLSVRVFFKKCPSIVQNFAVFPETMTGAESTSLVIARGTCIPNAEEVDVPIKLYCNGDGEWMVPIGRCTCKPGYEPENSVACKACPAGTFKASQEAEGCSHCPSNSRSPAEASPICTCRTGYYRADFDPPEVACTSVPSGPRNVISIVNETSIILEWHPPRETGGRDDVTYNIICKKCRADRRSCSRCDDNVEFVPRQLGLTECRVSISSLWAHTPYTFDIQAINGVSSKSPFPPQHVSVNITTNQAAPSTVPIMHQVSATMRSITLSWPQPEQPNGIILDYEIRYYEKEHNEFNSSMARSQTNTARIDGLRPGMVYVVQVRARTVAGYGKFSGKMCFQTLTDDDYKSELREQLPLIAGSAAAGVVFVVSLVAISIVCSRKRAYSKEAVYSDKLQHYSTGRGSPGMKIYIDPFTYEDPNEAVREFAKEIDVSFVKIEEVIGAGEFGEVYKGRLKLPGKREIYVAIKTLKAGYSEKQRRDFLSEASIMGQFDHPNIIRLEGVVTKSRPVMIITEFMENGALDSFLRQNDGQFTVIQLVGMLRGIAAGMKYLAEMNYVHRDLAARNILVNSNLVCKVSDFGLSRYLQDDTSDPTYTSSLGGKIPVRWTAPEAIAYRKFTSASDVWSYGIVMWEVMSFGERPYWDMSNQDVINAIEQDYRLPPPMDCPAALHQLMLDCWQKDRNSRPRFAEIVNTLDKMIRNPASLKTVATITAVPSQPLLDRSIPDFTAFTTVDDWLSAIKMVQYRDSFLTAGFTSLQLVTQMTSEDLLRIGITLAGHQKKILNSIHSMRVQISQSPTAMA

[19] = biological target: Mitogen-activated protein kinase kinase kinase 8 (Homo sapiens) (UniProt P41279); assay: Inhibition of human MAP3K8 at 1 uM using MEK1 as substrate in presence of [gamma33P]-ATP by HotSpot assay relative to control
[20] = biological target: Dual specificity tyrosine-phosphorylation-regulated kinase 1A (Homo sapiens) (UniProt Q13627); assay: Inhibition of human DYRK1A at 1 uM using RRRFRPASPLRGPPK as substrate in presence of [gamma33P]-ATP by HotSpot assay relative to control
[21] = biological target: MAP kinase-activated protein kinase 2 (Homo sapiens) (UniProt P49137); assay: Inhibition of human MAPKAPK2 at 1 uM using KKLNRTLSVA as substrate in presence of [gamma33P]-ATP by HotSpot assay relative to control
Focal adhesion kinase 1 = Focal adhesion kinase 1 (Homo sapiens, UniProt Q05397); assay: Inhibition of human FAK using poly (Glu, Tyr)4:1 as substrate in presence of [gamma33P]-ATP by HotSpot assay
[22] = biological target: MAP kinase-interacting serine/threonine-protein kinase 2 (Homo sapiens) (UniProt Q9HBH9); assay: Inhibition of human MNK2 at 1 uM using MBP as substrate in presence of [gamma33P]-ATP by HotSpot assay relative to control
MAP kinase-interacting serine/threonine-protein kinase 2 (Homo sapiens), sequence (Q9HBH9 whole entry, looked up): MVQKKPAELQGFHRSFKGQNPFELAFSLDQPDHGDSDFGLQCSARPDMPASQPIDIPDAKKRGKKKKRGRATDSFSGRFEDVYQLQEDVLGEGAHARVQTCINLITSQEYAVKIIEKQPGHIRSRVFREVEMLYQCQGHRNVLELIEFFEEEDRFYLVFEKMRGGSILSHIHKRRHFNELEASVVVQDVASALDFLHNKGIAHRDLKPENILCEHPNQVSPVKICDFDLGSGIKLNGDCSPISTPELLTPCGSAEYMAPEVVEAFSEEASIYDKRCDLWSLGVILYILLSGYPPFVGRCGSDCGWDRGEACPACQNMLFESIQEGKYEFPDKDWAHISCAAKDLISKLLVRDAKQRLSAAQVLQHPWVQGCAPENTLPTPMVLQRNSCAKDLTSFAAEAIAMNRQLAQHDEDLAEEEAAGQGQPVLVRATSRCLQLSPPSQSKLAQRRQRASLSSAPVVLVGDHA

U-937 = conditions: time 72 hrs

Q: With `COc1cc(N2CCC(N3CCN(C)CC3)CC2)ccc1Nc1ncc(Cl)c(Nc2ccccc2P(C)(C)=O)n1` [BRIGATINIB] as the compound, how does the IC50 [1] read?
A: The IC50 was 358 nM.

Q: What about the IC50 [2] of the same compound?
A: The IC50 was 23 nM.

Q: What about the inhibition [3] of the same compound?
A: The inhibition was < 90%.

Q: What about the inhibition [4] of the same compound?
A: The inhibition was < 90%.

Q: What about the inhibition [5] of the same compound?
A: Its inhibition is < 90%.

Q: And the GI50 (NCI-H2228)?
A: The GI50 was 10 nM.

Q: And the inhibition [6]?
A: Its inhibition is < 90%.

Q: What about the inhibition [7] of the same compound?
A: The inhibition was < 90%.

Q: What about the inhibition [8] of the same compound?
A: Its inhibition is < 90%.

Q: What about the inhibition [9] of the same compound?
A: Its inhibition is < 90%.

Q: What about the Activity (Mus musculus [10]) of the same compound?
A: The Activity was “Active”.

Q: And the inhibition [11]?
A: Its inhibition is < 90%.

Q: What about the TGI (KARPAS-299) of the same compound?
A: Its TGI is 87%.

Q: And the inhibition [12]?
A: The inhibition was “Active”.

Q: What about the inhibition [13] of the same compound?
A: The inhibition was < 90%.

Q: And the Activity (Mus musculus [14])?
A: Its Activity is “Active”.

Q: And the IC50 (cells)?
A: Its IC50 is 17 nM.

Q: And the inhibition [15]?
A: The inhibition was < 90%.

Q: And the inhibition [16]?
A: The inhibition was < 90%.

Q: And the IC50 [17]?
A: The IC50 was 171 nM.

Q: What about the IC50 [18] of the same compound?
A: The IC50 was 127 nM.

Q: What about the IC50 (Angiopoietin-1 receptor) of the same compound?
A: Its IC50 is > 1000 nM.

Q: What about the IC50 (Ephrin type-B receptor 1) of the same compound?
A: The IC50 was > 1000 nM.

Q: And the inhibition [19]?
A: The inhibition was < 90%.

Q: What about the inhibition [20] of the same compound?
A: Its inhibition is < 90%.

Q: And the inhibition [21]?
A: Its inhibition is < 90%.

Q: And the IC50 (Focal adhesion kinase 1)?
A: Its IC50 is 3.9 nM.

Q: What about the inhibition [22] of the same compound?
A: Its inhibition is < 90%.

Q: What about the GI50 (U-937) of the same compound?
A: The GI50 was 2390 nM.
